Holding throughout (type): functional
One test has as its system Puccinia recondita. The experiment in a line: Fungicidal activity against Puccinia recondita at 250 ppm relative to control.
A further test concerns Rhizoctonia solani. Put plainly: Fungicidal activity against Rhizoctonia solani at 250 ppm relative to control.
For another test, the system named is Blumeria graminis. The experiment in a line: Fungicidal activity against Blumeria graminis at 250 ppm relative to control.
The subject of a further test is Pyricularia oryzae. The experiment in a line: Fungicidal activity against Magnaporthe oryzae at 250 ppm relative to control.
The test system of a further test is Botrytis cinerea. Put plainly: Fungicidal activity against Botryotinia fuckeliana at 250 ppm relative to control.
Another test relates to Phytophthora infestans. Put plainly: Fungicidal activity against Phytophthora infestans at 250 ppm relative to control.

In the case of `Cc1c(/C=N/Nc2ccc(Cl)cc2)no[n+]1[O-]`, the Activity in the test on Puccinia recondita was 67%; with Rhizoctonia solani it was 37%; in the test on Blumeria graminis, 34%; in the test with Pyricularia oryzae, 0%; with Botrytis cinerea, 71%; in the test on Phytophthora infestans it was 45%.
Regarding `Cc1c(/C=N/c2ccccc2)no[n+]1[O-]`, the Activity with Puccinia recondita is listed as 17%; in the test on Rhizoctonia solani, 5%; in the test with Blumeria graminis, 15%; in the test with Pyricularia oryzae, 7%; with Botrytis cinerea, 62%; with Phytophthora infestans, 73%.
Take `Cc1c(/C=N/c2ccc(Cl)cc2)no[n+]1[O-]`: the Activity with Puccinia recondita was 67%; in the test with Rhizoctonia solani, 0%; with Blumeria graminis, 53%; in the test on Pyricularia oryzae it was 29%; in the test with Botrytis cinerea, 52%; in the test on Phytophthora infestans, 77%.
Regarding `Cc1ccc(/N=C/c2no[n+]([O-])c2C)cc1C`, the Activity came to 0% in the test with Puccinia recondita; 24% in the test on Rhizoctonia solani; 21% with Blumeria graminis; 11% in the test with Pyricularia oryzae; 33% in the test with Botrytis cinerea; 53% in the test on Phytophthora infestans.
Consider `Cc1c(/C=N/Nc2ccccc2)no[n+]1[O-]`, for which the Activity is given as 60% in the test with Puccinia recondita; 0% in the test on Rhizoctonia solani; 53% in the test with Blumeria graminis; 21% in the test with Pyricularia oryzae; 43% in the test with Botrytis cinerea; 36% in the test with Phytophthora infestans.
With `[O-][n+]1onc(-c2ccc3ccccc3c2)c1-c1ccc2ccccc2c1` [3,4-DI(2-NAPHTHYL)FUROXAN], the Activity turned out to be 0% in the test on Puccinia recondita; 10% in the test on Rhizoctonia solani; 73% in the test on Blumeria graminis; 60% in the test on Pyricularia oryzae; 51% in the test on Botrytis cinerea; 14% in the test with Phytophthora infestans.
Regarding `[O-][n+]1onc(-c2ccc(Cl)cc2)c1-c1ccc(Cl)cc1` [3,4-DI(4-CHLOROPHENYL)FUROXAN], the Activity with Puccinia recondita is on record as 87%; with Rhizoctonia solani, 35%; in the test on Blumeria graminis, 9%; with Pyricularia oryzae it was 14%; in the test on Botrytis cinerea it was 30%; in the test with Phytophthora infestans, 28%.
With `[O-][n+]1onc(-c2ccc(Cl)cc2Cl)c1-c1ccc(Cl)cc1Cl` [3,4-DI-(2,4-DICHLOROPHENYL)FUROXAN], the Activity in the test on Puccinia recondita is listed as 0%; in the test with Rhizoctonia solani, 16%; with Blumeria graminis, 0%; in the test with Pyricularia oryzae, 38%; with Botrytis cinerea it was 0%; in the test with Phytophthora infestans, 7%.
For `[O-][n+]1onc(-c2c(Cl)cccc2Cl)c1-c1c(Cl)cccc1Cl` [3,4-DI-(2,6-DICHLOROPHENYL)FUROXAN], the Activity with Puccinia recondita came out at 0%; in the test with Rhizoctonia solani it was 0%; in the test on Blumeria graminis, 0%; in the test with Pyricularia oryzae it was 41%; in the test with Botrytis cinerea, 0%; in the test with Phytophthora infestans it was 27%.
Regarding `[O-][n+]1onc(-c2ccccc2C(F)(F)F)c1-c1ccccc1C(F)(F)F` [3,4-DI-(2-(TRIFLUOROMETHYL)PHENYL)FUROXAN], the Activity amounted to 0% in the test on Puccinia recondita; 6% in the test with Rhizoctonia solani; 14% in the test with Blumeria graminis; 0% in the test with Pyricularia oryzae; 2% in the test on Botrytis cinerea; 0% with Phytophthora infestans.
For the compound `[O-][n+]1onc(-c2ccccc2Cl)c1-c1ccccc1Cl` [3,4-DI-(2-CHLOROPHENYL)FUROXAN], the Activity in the test on Puccinia recondita was 10%; in the test with Rhizoctonia solani, 26%; in the test with Blumeria graminis it was 33%; in the test on Pyricularia oryzae, 13%; in the test on Botrytis cinerea, 0%; in the test on Phytophthora infestans it was 20%.
For `[O-][n+]1onc(-c2cccnc2Cl)c1-c1cccnc1Cl` [3,4-DI-(2-CHLOROPYRIDIN-3-YL)FUROXAN], the Activity stood at 10% with Puccinia recondita; 11% in the test with Rhizoctonia solani; 0% in the test on Blumeria graminis; 19% in the test on Pyricularia oryzae; 0% in the test with Botrytis cinerea; 27% with Phytophthora infestans.
As to `[O-][n+]1onc(-c2ccccc2F)c1-c1ccccc1F` [3,4-DI-(2-FLUOROPHENYL)FUROXAN], the Activity in the test on Puccinia recondita came out at 0%; in the test on Rhizoctonia solani, 0%; in the test on Blumeria graminis it was 0%; in the test with Pyricularia oryzae, 6%; in the test with Botrytis cinerea, 0%; in the test on Phytophthora infestans, 0%.
As to `[O-][n+]1onc(-c2ccc(C(F)(F)F)cc2)c1-c1ccc(C(F)(F)F)cc1` [3,4-DI-(4-(TRIFLUOROMETHYL)PHENYL)FUROXAN], the Activity is listed as 0% with Puccinia recondita; 11% with Rhizoctonia solani; 17% in the test on Blumeria graminis; 6% in the test on Pyricularia oryzae; 0% in the test with Botrytis cinerea; 53% in the test on Phytophthora infestans.
Take `Cc1ccc(-c2no[n+]([O-])c2-c2ccc(C)s2)s1` [3,4-DI-(5-METHYLTHIOPHEN-2-YL)FUROXAN]: the Activity with Puccinia recondita came to 0%; in the test on Rhizoctonia solani, 5%; with Blumeria graminis it was 17%; in the test with Pyricularia oryzae, 38%; in the test with Botrytis cinerea it was 0%; in the test on Phytophthora infestans it was 33%.
As to `Cc1c(Cn2cncn2)no[n+]1[O-]` [3-METHYL-4-[(1,2,4-TRIAZOL-1-YL)METHYL]FUROXAN], the Activity is 0% in the test on Puccinia recondita; 0% in the test on Rhizoctonia solani; 25% in the test on Blumeria graminis; 4% in the test with Pyricularia oryzae; 8% in the test with Botrytis cinerea; 11% in the test on Phytophthora infestans.
Turning to `Cc1c(C(c2ccc(Cl)cc2)n2cncn2)no[n+]1[O-]` (stereo not given) [4-[(4-CHLOROPHENYL)(1,2,4-TRIAZOL-1-YL)METHYL]-3-METHYLFUROXAN], the Activity in the test on Puccinia recondita stood at 0%; with Rhizoctonia solani, 0%; in the test with Blumeria graminis, 25%; in the test with Pyricularia oryzae, 16%; with Botrytis cinerea it was 0%; in the test on Phytophthora infestans it was 37%.
In the case of `Cc1c(C(O)c2ccc(Cl)cc2)no[n+]1[O-]` (stereo not given) [4-[(4-CHLOROPHENYL)HYDROXYMETHYL]-3-METHYLFUROXAN], the Activity in the test with Puccinia recondita is reported as 0%; with Rhizoctonia solani it was 0%; with Blumeria graminis, 39%; in the test with Pyricularia oryzae it was 0%; in the test with Botrytis cinerea it was 25%; in the test on Phytophthora infestans, 20%.
Consider `Cc1c(C(Cl)c2ccc(Cl)cc2)no[n+]1[O-]` (stereo not given) [4-[CHLORO(4-CHLOROPHENYL)METHYL]-3-METHYLFUROXAN], for which the Activity came to 0% in the test with Puccinia recondita; 0% in the test with Rhizoctonia solani; 8% with Blumeria graminis; 21% in the test on Pyricularia oryzae; 0% in the test on Botrytis cinerea; 0% with Phytophthora infestans.
Take `COc1ccc(C(O)c2no[n+]([O-])c2C)cc1` (stereo not given) [4-[HYDROXY(4-METHOXYPHENYL)METHYL]-3-METHYLFUROXAN]: the Activity in the test with Puccinia recondita worked out at 0%; in the test on Rhizoctonia solani it was 5%; with Blumeria graminis, 0%; in the test on Pyricularia oryzae, 4%; in the test with Botrytis cinerea, 17%; in the test with Phytophthora infestans, 19%.
